Assay results as given in ChEMBL document CHEMBL1201862, “PubChem BioAssay data set” (2004).
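96-well plates; 48 h exposure; 5 concentrations. Endpoints by linear interpolation between flanking doses. Not reached: highest tested concentration assigned. Here, GI50 denotes the concentration required for 50% inhibition of growth.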 Calls of active or inactive are those of the source. Cut-off read from the data, not from the text of the source: active = GI50 up to about 1.1 µM and inactive = higher.

Legend:
Test in all cases: NCI-60 cell line screen, 48 h
DMS-114 = system: DMS-114
KM-20L2 = system: KM-20L2
HOP-18 = system: HOP-18
LXFL 529 = system: LXFL 529
RXF 631 = system: RXF 631
DMS-273 = system: DMS-273
DLD-1 = system: DLD-1
M19-MEL = system: M19-MEL
XF498 = system: XF498

Measured: GI50

CCCCCCCCCCCCCCCCCC(=O)O[C@H](COC(=O)CCCCCCCCCCC)COC(=O)CCCCCCCCCCCCCCC
inactive: DMS-114 > 100 µM | KM-20L2 > 100 µM | HOP-18 > 100 µM | LXFL 529 > 100 µM | RXF 631 > 100 µM | DMS-273 > 100 µM | DLD-1 > 100 µM | M19-MEL > 100 µM

NC(Cc1ccc2oc3cc(=O)c4ccccc4c-3nc2c1)C(=O)O (stereo not drawn)
inactive: DMS-114 13.9 µM | KM-20L2 39.2 µM | HOP-18 25.8 µM | LXFL 529 55.5 µM | DMS-273 22.4 µM | DLD-1 34.8 µM

C=C(C)C1Cc2c(cc(OC)c3c(=O)c4ccccc4n(C)c23)O1 (stereo not drawn)
inactive: XF498 > 100 µM | DMS-114 91.8 µM | KM-20L2 > 100 µM | HOP-18 > 100 µM | LXFL 529 > 100 µM | DMS-273 91.6 µM | DLD-1 > 100 µM | M19-MEL 63.7 µM

COc1cccc2c1C1(O)C2CCCCCCCCCC12OCCCO2 (stereo not drawn)
inactive: DMS-114 > 100 µM | KM-20L2 > 100 µM | HOP-18 > 100 µM | LXFL 529 45.6 µM | DMS-273 > 100 µM | DLD-1 6.64 µM

O=C(c1ccc(Cl)cc1)c1ccc(OCCCOc2ccc(C(=O)c3ccc(Cl)cc3)cc2Cl)c(Cl)c1
inactive: XF498 > 100 µM | DMS-114 > 100 µM | KM-20L2 > 100 µM | LXFL 529 > 100 µM | RXF 631 > 100 µM | DMS-273 > 100 µM | DLD-1 > 100 µM | M19-MEL > 100 µM

C/C(=N\N=C(N)N)c1sc(-c2nc(C)c(/C(C)=N/N=C(N)N)s2)nc1C
inactive: XF498 > 100 µM | KM-20L2 > 100 µM | HOP-18 > 100 µM | LXFL 529 > 88.3 µM | DMS-273 > 100 µM | DLD-1 > 51.2 µM | M19-MEL > 100 µM

COC(=O)C(C(=O)C(=O)Nc1ccc(OC)cc1[N+](=O)[O-])c1nc2cc(C)c(C)cc2nc1O (stereo not drawn)
inactive: DMS-114 > 100 µM | KM-20L2 > 100 µM | HOP-18 > 100 µM | LXFL 529 > 100 µM | RXF 631 > 100 µM | DLD-1 > 100 µM | M19-MEL > 100 µM

COc1cc(CC2c3cc(OC)c(OC)cc3CCN2C)ccc1O (stereo not drawn)
inactive: XF498 > 100 µM | KM-20L2 > 100 µM | HOP-18 > 100 µM | LXFL 529 > 100 µM | DLD-1 > 100 µM

CSc1n[n+]2c(s1)SCCC2
inactive: XF498 > 100 µM | DMS-114 62.5 µM | HOP-18 42.7 µM | LXFL 529 > 100 µM | RXF 631 > 100 µM | DMS-273 > 100 µM | DLD-1 > 100 µM | M19-MEL > 100 µM

NS(=O)(=O)c1ccc(Nc2c3ccccc3nc3c(C(=O)N4CCN(CCO)CC4)cccc23)cc1
inactive: XF498 > 100 µM | DMS-114 75.5 µM | KM-20L2 > 100 µM | HOP-18 > 100 µM | LXFL 529 60.3 µM | DMS-273 82.6 µM | M19-MEL > 100 µM

Cc1cc2oc(=O)[nH]c(=S)c2c(C)c1C
inactive: XF498 > 100 µM | DMS-114 > 100 µM | KM-20L2 > 100 µM | HOP-18 > 100 µM | LXFL 529 > 100 µM | DMS-273 > 100 µM | M19-MEL > 100 µM

CCCCCCCCCCCCCCCCOCC(CN(C)CCN(C)C)OCCCCCCCCCCCCCCCC (stereo not drawn)
inactive: DMS-114 > 100 µM | KM-20L2 > 100 µM | HOP-18 > 100 µM | LXFL 529 > 100 µM | RXF 631 > 100 µM | DMS-273 > 100 µM | DLD-1 > 100 µM | M19-MEL > 100 µM

O[C@]12c3ccccc3C1CCCC2N1CCOCC1 (stereo partly drawn)
inactive: XF498 > 100 µM | DMS-114 > 100 µM | KM-20L2 > 100 µM | HOP-18 > 100 µM | LXFL 529 > 100 µM | DMS-273 > 100 µM | M19-MEL > 100 µM

CN(CCc1ccccn1)/[N+]([O-])=N/O.CNCCc1ccccn1
inactive: DMS-114 > 100 µM | KM-20L2 > 100 µM | HOP-18 > 100 µM | LXFL 529 > 100 µM | RXF 631 > 100 µM | DMS-273 > 100 µM | DLD-1 > 100 µM | M19-MEL > 100 µM

Clc1ccc(-n2nnc(C3=NCCN3)c2-c2ccccc2)cc1
inactive: XF498 > 100 µM | DMS-114 > 100 µM | KM-20L2 > 100 µM | HOP-18 > 100 µM | LXFL 529 > 100 µM | DMS-273 > 100 µM | DLD-1 > 100 µM | M19-MEL > 100 µM

COc1cc2c(cc1OC)[C@H]1C(COC(=O)Nc3ccccc3)CN1CC2 (stereo partly drawn)
inactive: HOP-18 > 100 µM | LXFL 529 > 100 µM | DMS-273 > 100 µM | DLD-1 > 100 µM | M19-MEL > 100 µM
